Patent publication US7900639B2, “Reconstituted tobaccos containing additive materials” (R. J. Reynolds Tobacco Company, priority 2003, dated 2011)

How the values were obtained:
bacteria = assay: Extracts tested for bacterial growth; settings: test extract versus control extract without additive
[1] = room temperature
Protocol: The tobacco blend is extracted batch wise at about 130° F. using about 10 to about 15 parts tap water for each part tobacco material. Aqueous tobacco extract is separated from the water insoluble pulp using a centrifuge. The aqueous extract so provided has a soluble solids content of about 5%. The resulting extract is concentrated to a soluble solids content of about 22% to about 28% using a wiped film evaporator. The prepared extract is divided into two portions. To one portion, d-, l-alpha tocopherol is contacted with the resulting mixture (the test extract). […] In the other portion, no d-, l-alpha tocopherol is added, and as such a control extract is provided.
The concentrated liquid tobacco extracts with and without added d-, l-alpha tocopherol mixture are vigorously mixed or homogenized and allowed to set at room temperature conditions for five days.

Cc1c(C)c2c(c(C)c1O)CCC(C)(CCCC(C)CCCC(C)CCCC(C)C)O2 (stereo not drawn) [d-, l-alpha tocopherol]
bacteria activity in the extract (bacteria): significantly reduce
condition of aqueous tobacco extract containing the additive on storage ([1]; approximately 4% d-, l-alpha tocopherol on dried solids, five days, control began to ferment within two days): remained unchanged
separation of the additive in the tobacco extract ([1]; emulsified in test extract, five day test period): no separation
